Read-outs that look alike come from different tables or passages of the source.
Target: T1, rat CB-1 receptor (Rattus norvegicus, UniProt P20272)
T1 construct: The tissue obtained from the brain of SD rats was homogenized; from tissue; host or cells: brain of SD rats (membrane pellet of homogenate)
Experiment: rat CB-1 receptor binding protocol with [3H]CP-55940

[1] = [3H]CP-55940, brain tissue of SD rats, 30 °C for 60 min, read-out: IC50

T1 sequence (P20272 whole entry): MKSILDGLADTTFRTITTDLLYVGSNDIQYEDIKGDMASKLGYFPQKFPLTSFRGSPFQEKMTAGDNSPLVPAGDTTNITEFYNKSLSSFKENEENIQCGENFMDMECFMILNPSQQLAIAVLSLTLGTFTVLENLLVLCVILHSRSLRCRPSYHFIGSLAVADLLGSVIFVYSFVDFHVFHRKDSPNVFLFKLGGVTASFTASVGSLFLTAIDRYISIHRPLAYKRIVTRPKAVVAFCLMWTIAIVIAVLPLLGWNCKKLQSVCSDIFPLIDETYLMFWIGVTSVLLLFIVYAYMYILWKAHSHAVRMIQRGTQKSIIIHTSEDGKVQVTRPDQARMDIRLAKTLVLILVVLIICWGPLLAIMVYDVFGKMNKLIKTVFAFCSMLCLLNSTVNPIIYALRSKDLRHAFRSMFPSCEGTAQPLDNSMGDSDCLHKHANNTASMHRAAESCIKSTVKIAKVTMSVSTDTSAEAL

| IC50 [1] [nM] | Compound | IC50 [nM] |
| --- | --- | --- |
| 13.2 | Cc1c(-c2nnc(C(C)(C)C)o2)nc(-c2ccc(Cl)cc2Cl)n1-c1ccc(Cl)cc1 [Example 1, 2-tert-Butyl-5-(1-(4-chlorophenyl)-2-(2,4-dichlorophenyl)-5-methyl-1H-imidazol-4-yl)-1,3,4-oxadiazole] | – |
| 115 | Cc1c(-c2nnc(C3CCCCC3)o2)nc(-c2ccc(Cl)cc2Cl)n1-c1ccc(Cl)cc1 [Example 2, 2-(1-(4-Chlorophenyl)-2-(2,4-dichlorophenyl)-5-methyl-1H-imidazol-4-yl)-5-cyclohexyl-1,3,4-oxadiazole] | – |
| 38.7 | Cc1c(-c2nnc(C3CCC3)o2)nc(-c2ccc(Cl)cc2Cl)n1-c1ccc(Cl)cc1 [Example 4, 2-(1-(4-Chlorophenyl)-2-(2,4-dichlorophenyl)-5-methyl-1H-imidazol-4-yl)-5-cyclobutyl-1,3,4-oxadiazole] | – |
| 27.6 | Cc1c(-c2nnc(C3CCCCCC3)o2)nc(-c2ccc(Cl)cc2Cl)n1-c1ccc(Cl)cc1 [Example 5, 2-(1-(4-Chlorophenyl)-2-(2,4-dichlorophenyl)-5-methyl-1H-imidazol-4-yl)-5-cycloheptyl-1,3,4-oxadiazole] | – |
| 12.9 | CCCCC(C)c1nnc(-c2nc(-c3ccc(Cl)cc3Cl)n(-c3ccc(Cl)cc3)c2C)o1 (stereo not shown) [Example 6, 2-(1-(4-Chlorophenyl)-2-(2,4-dichlorophenyl)-5-methyl-1H-imidazol-4-yl)-5-(hexan-2-yl)-1,3,4-oxadiazole] | – |
| 39.4 | CCC(C)c1nnc(-c2nc(-c3ccc(Cl)cc3Cl)n(-c3ccc(Cl)cc3)c2C)o1 (stereo not shown) [Example 8, 2-sec-Butyl-5-(1-(4-chlorophenyl)-2-(2,4-dichlorophenyl)-5-methyl-1H-imidazol-4-yl)-1,3,4-oxadiazole] | – |
| 22.3 | CCC(CC)c1nnc(-c2nc(-c3ccc(Cl)cc3Cl)n(-c3ccc(Cl)cc3)c2C)o1 [Example 10, 2-(1-(4-Chlorophenyl)-2-(2,4-dichlorophenyl)-5-methyl-1H-imidazol-4-yl)-5-(pentan-3-yl)-1,3,4-oxadiazole] | – |
| 17.9 | CCc1c(-c2nnc(C(C)CC)o2)nc(-c2ccc(Cl)cc2Cl)n1-c1ccc(Cl)cc1 (stereo not shown) [Example 18, 2-sec-Butyl-5-(1-(4-chlorophenyl)-2-(2,4-dichlorophenyl)-5-ethyl-1H-imidazol-4-yl)-1,3,4-oxadiazole] | – |
| 5.81 | Cc1c(-c2nnc(C(C)(C)C)o2)nc(-c2ccc(Cl)cc2Cl)n1-c1ccc(Br)cc1 [Example 20, 2-(1-(4-Bromophenyl)-2-(2,4-dichlorophenyl)-5-methyl-1H-imidazol-4-yl)-5-tert-butyl-1,3,4-oxadiazole] | – |
| 3.15 | CCc1c(-c2nnc(C(C)(C)C)o2)nc(-c2ccc(Cl)cc2Cl)n1-c1ccc(Br)cc1 [Example 21, 2-(1-(4-Bromophenyl)-2-(2,4-dichlorophenyl)-5-ethyl-1H-imidazol-4-yl)-5-tert-butyl-1,3,4-oxadiazole] | – |
| 24.1 | CCc1c(-c2nnc(C3CCC3)o2)nc(-c2ccc(Cl)cc2Cl)n1-c1ccc(Br)cc1 [Example 23, 2-(1-(4-Bromophenyl)-2-(2,4-dichlorophenyl)-5-ethyl-1H-imidazol-4-yl)-5-cyclobutyl-1,3,4-oxadiazole] | – |
| 79.9 | CC(C)(C)c1nnc(-c2nc(-c3ccc(Cl)cc3Cl)n(-c3ccc(Cl)cc3)c2C2CC2)o1 [Example 24, 2-tert-Butyl-5-(1-(4-chlorophenyl)-5-cyclopropyl-2-(2,4-dichlorophenyl)-1H-imidazol-4-yl)-1,3,4-oxadiazole] | – |

Continued, molecule first:

| Compound | IC50 [1] [nM] | IC50 [nM] |
| --- | --- | --- |
| Cc1c(-c2nnc(C3CCCC3)o2)nc(-c2ccc(Cl)cc2Cl)n1-c1ccc(Cl)cc1 [Example 3, 2-(1-(4-Chlorophenyl)-2-(2,4-dichlorophenyl)-5-methyl-1H-imidazol-4-yl)-5-cyclopentyl-1,3,4-oxadiazole] | – | 35.3 |
| CCCC(C)c1nnc(-c2nc(-c3ccc(Cl)cc3Cl)n(-c3ccc(Cl)cc3)c2C)o1 (stereo not shown) [Example 7, 2-(1-(4-Chlorophenyl)-2-(2,4-dichlorophenyl)-5-methyl-1H-imidazol-4-yl)-5-(pentan-2-yl)-1,3,4-oxadiazole] | – | 14.2 |
| Cc1c(-c2nnc(C(C)C)o2)nc(-c2ccc(Cl)cc2Cl)n1-c1ccc(Cl)cc1 [Example 9, 2-(1-(4-Chlorophenyl)-2-(2,4-dichlorophenyl)-5-methyl-1H-imidazol-4-yl)-5-isopropyl-1,3,4-oxadiazole] | – | 25.8 |
| Cc1c(-c2nnc(C(C)c3ccccc3)o2)nc(-c2ccc(Cl)cc2Cl)n1-c1ccc(Cl)cc1 (stereo not shown) [Example 11, 2-(1-(4-Chlorophenyl)-2-(2,4-dichlorophenyl)-5-methyl-1H-imidazol-4-yl)-5-(1-phenylethyl)-1,3,4-oxadiazole] | – | 31.4 |
| CCc1c(-c2nnc(C3CCCCC3)o2)nc(-c2ccc(Cl)cc2Cl)n1-c1ccc(Cl)cc1 [Example 12, 2-(1-(4-Chlorophenyl)-2-(2,4-dichlorophenyl)-5-ethyl-1H-imidazol-4-yl)-5-cyclohexyl-1,3,4-oxadiazole] | 48.4 | – |
| CCc1c(-c2nnc(C3CCCC3)o2)nc(-c2ccc(Cl)cc2Cl)n1-c1ccc(Cl)cc1 [Example 13, 2-(1-(4-Chlorophenyl)-2-(2,4-dichlorophenyl)-5-ethyl-1H-imidazol-4-yl)-5-cyclopentyl-1,3,4-oxadiazole] | 25.8 | – |
| CCc1c(-c2nnc(C3CCC3)o2)nc(-c2ccc(Cl)cc2Cl)n1-c1ccc(Cl)cc1 [Example 14, 2-(1-(4-Chlorophenyl)-2-(2,4-dichlorophenyl)-5-ethyl-1H-imidazol-4-yl)-5-cyclobutyl-1,3,4-oxadiazole] | 34.1 | – |
| CCc1c(-c2nnc(C(C)(C)C)o2)nc(-c2ccc(Cl)cc2Cl)n1-c1ccc(Cl)cc1 [Example 15, 2-tert-butyl-5-(1-(4-chlorophenyl)-2-(2,4-dichlorophenyl)-5-ethyl-1H-imidazol-4-yl)-1,3,4-oxadiazole] | – | 18.1 |
| CCCCC(C)c1nnc(-c2nc(-c3ccc(Cl)cc3Cl)n(-c3ccc(Cl)cc3)c2CC)o1 (stereo not shown) [Example 16, 2-(1-(4-Chlorophenyl)-2-(2,4-dichlorophenyl)-5-ethyl-1H-imidazol-4-yl)-5-(hexan-2-yl)-1,3,4-oxadiazole] | 11.2 | – |
| CCCC(C)c1nnc(-c2nc(-c3ccc(Cl)cc3Cl)n(-c3ccc(Cl)cc3)c2CC)o1 (stereo not shown) [Example 17, 2-(1-(4-Chlorophenyl)-2-(2,4-dichlorophenyl)-5-ethyl-1H-imidazol-4-yl)-5-(pentan-2-yl)-1,3,4-oxadiazole] | 11.5 | – |
| Cc1c(-c2nnc(C3CCCCC3)o2)nc(-c2ccc(Cl)cc2Cl)n1-c1ccc(Br)cc1 [Example 19, 2-(1-(4-Bromophenyl)-2-(2,4-dichlorophenyl)-5-methyl-1H-imidazol-4-yl)-5-cyclohexyl-1,3,4-oxadiazole] | – | 70 |
| Cc1c(-c2nnc(C3CCC3)o2)nc(-c2ccc(Cl)cc2Cl)n1-c1ccc(Br)cc1 [Example 22, 2-(1-(4-Bromophenyl)-2-(2,4-dichlorophenyl)-5-methyl-1H-imidazol-4-yl)-5-cyclobutyl-1,3,4-oxadiazole] | – | 29.3 |
| CC(C)c1c(-c2nnc(C(C)(C)C)o2)nc(-c2ccc(Cl)cc2Cl)n1-c1ccc(Br)cc1 [Example 25, 2-(1-(4-Bromophenyl)-2-(2,4-dichlorophenyl)-5-isopropyl-1H-imidazol-4-yl)-5-tert-butyl-1,3,4-oxadiazole] | – | 21.2 |

— patent US20080207705A1, “Heteroaryl-Imidazole Derivatives as Cannabinoid CB1 Receptor Antagonists” (Green Cross Corporation, priority 2007, published 2008)
